The supplement of paper PMC12463676, “Small-molecule dissolution of stress granules by redox modulation benefits ALS models” (Nature Chemical Biology, 2025)

How the values were obtained:
potassium arsenate = compound: O=[As]([O-])(O)O.[K+] [potassium arsenate]; test: thermal stability z-score vs DMSO; higher = more thermally stabilized by treatment; settings: HeLa; arsenate concentration 1 mM
Description: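 Cellular thermal proteome profiling in HeLa cells treated with 1 mM arsenate for 1 h (DMSO pretreatment), heated to ten temperatures (37-66.3 °C). Soluble protein was quantified by TMT mass spectrometry relative to DMSO controls; the thermal stability score was transformed to a z-score; mean of n = 3 experiments.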

lipoamide = compound: NC(=O)CCCCC1CCSS1 [lipoamide]; test: as above; settings: HeLa, lipoamide concentration 100 µM
Description: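 Cellular thermal proteome profiling in HeLa cells. Cells were treated with 100 µM lipoamide for 1 h, with or without 1 mM arsenate for a further 1 h, then heated to ten temperatures (37-66.3 °C), and soluble protein was quantified by TMT mass spectrometry relative to 0.1% DMSO controls. The thermal stability score (sum of log2 fold changes minus the abundance score) was transformed to a z-score; mean of n = 3 experiments.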

[1] = arsenate co-treatment: 1 mM arsenate 1 h
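Also: each temperature applied for 3 min, abundance score taken as mean log2 fold change at the two lowest temperatures, z-score obtained by mean subtraction and division by SD.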

UniProt P78318, sequence (P78318 whole entry): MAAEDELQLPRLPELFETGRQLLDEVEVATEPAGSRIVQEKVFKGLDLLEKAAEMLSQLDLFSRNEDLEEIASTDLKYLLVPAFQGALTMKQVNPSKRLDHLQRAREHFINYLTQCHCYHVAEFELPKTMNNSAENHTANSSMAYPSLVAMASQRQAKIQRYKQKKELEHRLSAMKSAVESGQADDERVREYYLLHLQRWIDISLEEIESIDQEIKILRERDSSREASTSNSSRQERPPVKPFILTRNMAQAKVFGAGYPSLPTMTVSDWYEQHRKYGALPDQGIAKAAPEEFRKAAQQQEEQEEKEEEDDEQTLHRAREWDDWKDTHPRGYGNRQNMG
UniProt O75144, sequence (O75144 whole entry): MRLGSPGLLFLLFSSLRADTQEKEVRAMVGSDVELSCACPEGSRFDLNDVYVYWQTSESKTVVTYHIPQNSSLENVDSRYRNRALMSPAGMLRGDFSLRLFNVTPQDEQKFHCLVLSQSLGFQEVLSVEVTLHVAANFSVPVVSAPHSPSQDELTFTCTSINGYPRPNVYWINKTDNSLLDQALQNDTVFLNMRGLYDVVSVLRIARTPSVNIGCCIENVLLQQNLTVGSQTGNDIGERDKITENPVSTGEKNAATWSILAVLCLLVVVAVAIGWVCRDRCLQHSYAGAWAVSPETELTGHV
UniProt P14735, sequence (P14735 whole entry): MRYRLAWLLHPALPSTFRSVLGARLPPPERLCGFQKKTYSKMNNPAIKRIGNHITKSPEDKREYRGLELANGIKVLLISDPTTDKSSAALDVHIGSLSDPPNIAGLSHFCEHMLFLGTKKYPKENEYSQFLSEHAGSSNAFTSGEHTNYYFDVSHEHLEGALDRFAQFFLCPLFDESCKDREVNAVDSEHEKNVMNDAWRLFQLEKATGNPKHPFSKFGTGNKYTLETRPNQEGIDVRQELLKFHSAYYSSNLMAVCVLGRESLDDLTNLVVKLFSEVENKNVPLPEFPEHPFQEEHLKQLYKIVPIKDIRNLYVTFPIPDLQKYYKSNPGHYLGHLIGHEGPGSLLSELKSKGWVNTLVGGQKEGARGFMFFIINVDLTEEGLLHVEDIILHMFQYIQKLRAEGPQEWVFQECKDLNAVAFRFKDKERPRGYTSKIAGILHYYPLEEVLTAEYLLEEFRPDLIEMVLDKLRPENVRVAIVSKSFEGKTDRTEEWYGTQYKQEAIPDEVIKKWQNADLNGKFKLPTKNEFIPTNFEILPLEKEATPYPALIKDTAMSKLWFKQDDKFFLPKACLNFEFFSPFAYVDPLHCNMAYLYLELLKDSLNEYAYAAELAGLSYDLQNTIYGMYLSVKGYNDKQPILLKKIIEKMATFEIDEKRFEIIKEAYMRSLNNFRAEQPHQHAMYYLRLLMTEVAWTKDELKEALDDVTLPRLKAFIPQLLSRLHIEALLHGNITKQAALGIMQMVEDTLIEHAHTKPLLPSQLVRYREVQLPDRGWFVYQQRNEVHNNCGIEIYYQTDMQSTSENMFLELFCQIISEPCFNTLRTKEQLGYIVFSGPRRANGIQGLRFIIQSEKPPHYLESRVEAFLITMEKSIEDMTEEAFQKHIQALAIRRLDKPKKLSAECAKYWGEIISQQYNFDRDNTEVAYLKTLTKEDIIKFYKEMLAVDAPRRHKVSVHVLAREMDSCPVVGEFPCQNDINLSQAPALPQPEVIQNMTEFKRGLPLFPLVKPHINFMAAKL
UniProt Q8WYA0, sequence (Q8WYA0 whole entry): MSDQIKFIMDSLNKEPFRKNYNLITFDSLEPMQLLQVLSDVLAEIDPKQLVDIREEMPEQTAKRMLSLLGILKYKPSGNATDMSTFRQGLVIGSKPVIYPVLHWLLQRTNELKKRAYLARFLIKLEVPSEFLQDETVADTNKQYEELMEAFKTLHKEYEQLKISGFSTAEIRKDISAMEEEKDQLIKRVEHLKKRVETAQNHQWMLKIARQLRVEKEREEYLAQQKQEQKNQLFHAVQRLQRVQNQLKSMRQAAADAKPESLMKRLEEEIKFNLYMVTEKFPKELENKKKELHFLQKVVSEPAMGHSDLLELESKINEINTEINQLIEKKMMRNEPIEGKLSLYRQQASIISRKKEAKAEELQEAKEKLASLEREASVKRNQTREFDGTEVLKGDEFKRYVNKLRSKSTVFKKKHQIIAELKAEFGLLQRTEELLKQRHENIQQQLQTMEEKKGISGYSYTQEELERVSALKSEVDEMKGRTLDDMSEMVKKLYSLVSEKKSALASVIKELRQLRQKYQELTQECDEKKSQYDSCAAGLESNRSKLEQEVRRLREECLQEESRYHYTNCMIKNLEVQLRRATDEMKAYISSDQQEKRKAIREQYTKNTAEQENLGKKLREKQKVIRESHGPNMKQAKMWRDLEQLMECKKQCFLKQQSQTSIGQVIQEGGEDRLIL
UniProt O75874, sequence (O75874 whole entry): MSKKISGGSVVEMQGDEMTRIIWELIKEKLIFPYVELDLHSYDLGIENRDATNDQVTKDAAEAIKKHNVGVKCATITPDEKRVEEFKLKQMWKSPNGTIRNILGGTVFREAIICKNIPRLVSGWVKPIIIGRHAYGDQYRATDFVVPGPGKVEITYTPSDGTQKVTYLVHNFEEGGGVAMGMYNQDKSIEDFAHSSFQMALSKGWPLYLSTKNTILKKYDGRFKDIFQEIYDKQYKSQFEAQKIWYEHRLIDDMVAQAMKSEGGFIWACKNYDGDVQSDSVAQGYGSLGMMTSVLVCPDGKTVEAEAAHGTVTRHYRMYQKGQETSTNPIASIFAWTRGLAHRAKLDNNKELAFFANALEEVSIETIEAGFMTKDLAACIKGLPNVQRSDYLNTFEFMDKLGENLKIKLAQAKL
UniProt Q5T440, sequence (Q5T440 whole entry): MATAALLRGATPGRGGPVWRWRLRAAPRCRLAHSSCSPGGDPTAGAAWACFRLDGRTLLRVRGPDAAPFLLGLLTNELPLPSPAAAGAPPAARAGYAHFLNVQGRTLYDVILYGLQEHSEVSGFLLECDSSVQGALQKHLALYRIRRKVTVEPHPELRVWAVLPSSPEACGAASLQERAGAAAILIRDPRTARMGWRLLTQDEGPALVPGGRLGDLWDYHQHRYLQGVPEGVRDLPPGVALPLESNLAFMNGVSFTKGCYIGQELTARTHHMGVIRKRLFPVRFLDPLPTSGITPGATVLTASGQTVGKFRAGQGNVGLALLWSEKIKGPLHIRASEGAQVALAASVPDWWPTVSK
UniProt P05362, sequence (P05362 whole entry): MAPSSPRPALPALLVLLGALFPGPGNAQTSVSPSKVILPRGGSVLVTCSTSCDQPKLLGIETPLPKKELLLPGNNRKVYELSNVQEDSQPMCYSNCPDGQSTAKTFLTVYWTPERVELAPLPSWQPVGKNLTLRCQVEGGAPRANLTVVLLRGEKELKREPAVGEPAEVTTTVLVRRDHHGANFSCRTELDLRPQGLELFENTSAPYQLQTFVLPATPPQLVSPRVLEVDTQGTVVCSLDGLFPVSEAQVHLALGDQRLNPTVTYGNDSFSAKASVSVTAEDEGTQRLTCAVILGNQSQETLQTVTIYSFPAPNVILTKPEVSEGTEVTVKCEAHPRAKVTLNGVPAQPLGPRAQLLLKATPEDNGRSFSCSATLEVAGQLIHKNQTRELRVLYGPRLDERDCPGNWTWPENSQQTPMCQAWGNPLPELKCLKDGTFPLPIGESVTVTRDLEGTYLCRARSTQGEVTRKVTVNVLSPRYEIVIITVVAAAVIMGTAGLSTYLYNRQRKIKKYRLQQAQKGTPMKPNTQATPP
UniProt Q12894, sequence (Q12894 whole entry): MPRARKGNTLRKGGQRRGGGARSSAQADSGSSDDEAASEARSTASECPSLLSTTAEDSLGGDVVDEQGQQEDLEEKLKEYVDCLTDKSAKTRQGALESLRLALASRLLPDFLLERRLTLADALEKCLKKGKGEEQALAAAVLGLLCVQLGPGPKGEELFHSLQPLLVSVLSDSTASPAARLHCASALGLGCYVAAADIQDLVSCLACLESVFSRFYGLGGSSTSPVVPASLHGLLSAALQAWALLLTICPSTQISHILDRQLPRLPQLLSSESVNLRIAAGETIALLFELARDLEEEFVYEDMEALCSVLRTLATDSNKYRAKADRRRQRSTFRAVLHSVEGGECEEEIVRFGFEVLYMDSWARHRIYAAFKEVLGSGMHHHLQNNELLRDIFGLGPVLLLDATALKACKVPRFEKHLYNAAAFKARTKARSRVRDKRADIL
UniProt O43837, sequence (O43837 whole entry): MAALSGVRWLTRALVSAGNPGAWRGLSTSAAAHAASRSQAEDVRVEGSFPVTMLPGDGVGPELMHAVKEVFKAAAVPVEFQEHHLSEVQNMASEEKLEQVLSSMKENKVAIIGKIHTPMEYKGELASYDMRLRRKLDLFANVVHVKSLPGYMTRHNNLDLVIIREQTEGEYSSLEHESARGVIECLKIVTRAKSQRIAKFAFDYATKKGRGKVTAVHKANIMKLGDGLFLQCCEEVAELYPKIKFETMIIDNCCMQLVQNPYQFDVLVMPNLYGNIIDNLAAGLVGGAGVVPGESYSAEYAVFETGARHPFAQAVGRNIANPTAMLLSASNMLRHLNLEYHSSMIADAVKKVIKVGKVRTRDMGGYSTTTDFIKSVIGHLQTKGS
UniProt O14879, sequence (O14879 whole entry): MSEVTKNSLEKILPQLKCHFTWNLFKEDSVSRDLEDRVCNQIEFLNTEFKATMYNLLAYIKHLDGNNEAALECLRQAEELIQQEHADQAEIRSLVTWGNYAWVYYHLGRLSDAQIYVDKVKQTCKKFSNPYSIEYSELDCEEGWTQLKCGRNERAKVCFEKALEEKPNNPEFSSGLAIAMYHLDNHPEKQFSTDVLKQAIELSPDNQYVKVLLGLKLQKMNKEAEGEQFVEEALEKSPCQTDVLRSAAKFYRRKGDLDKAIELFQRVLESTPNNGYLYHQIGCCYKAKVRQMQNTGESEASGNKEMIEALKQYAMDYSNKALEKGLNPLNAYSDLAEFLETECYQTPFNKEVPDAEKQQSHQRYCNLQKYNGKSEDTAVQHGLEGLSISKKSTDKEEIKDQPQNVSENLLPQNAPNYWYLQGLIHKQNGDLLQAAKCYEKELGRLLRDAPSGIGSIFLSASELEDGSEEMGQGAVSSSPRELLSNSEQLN

Row | Target | thermal stability z-score (potassium arsenate) | thermal stability z-score (lipoamide; [1]) | thermal stability z-score (lipoamide; arsenate co-treatment: none)
1 | IBA57 (UniProt Q5T440) | -0.431 | -0.0611 | 0.155
2 | IBTK (UniProt Q9P2D0) | -0.576 | -0.734 | -0.319
3 | ICAM1 (UniProt P05362) | -0.49 | 0.33 | -0.273
4 | ICOSLG (UniProt O75144) | -0.984 | -0.136 | -0.0493
5 | ICT1 (UniProt Q14197) | -0.225 | -0.321 | -0.282
6 | ID1 (UniProt P41134) | -0.00372 | 0.197 | 0.0434
7 | IDE (UniProt P14735) | 1.24 | 0.708 | 0.717
8 | IDH1 (UniProt O75874) | -0.596 | 0.0654 | -0.257
9 | IDH2 (UniProt P48735) | -0.911 | -0.129 | 0.0632
10 | IDH3A (UniProt P50213) | -1.11 | -0.0281 | -0.439
11 | IDH3B (UniProt O43837) | -1.28 | 0.075 | -1.17
12 | IDH3G (UniProt P51553) | -0.189 | 0.738 | -0.664
13 | IDI1 (UniProt Q13907) | 0.042 | 1.01 | 0.458
14 | IFI16 (UniProt Q16666) | -0.386 | 0.022 | 0.122
15 | IFI30 (UniProt P13284) | -0.049 | 1.71 | 0.524
16 | IFI35 (UniProt P80217) | 2.08 | 1.36 | 0.774
17 | IFIT1 (UniProt P09914) | 0.419 | -0.626 | -0.265
18 | IFIT2 (UniProt P09913) | -0.392 | -0.00168 | -0.0988

Row | Target | thermal stability z-score (potassium arsenate) | thermal stability z-score (lipoamide; [1]) | thermal stability z-score (lipoamide; arsenate co-treatment: none)
19 | IFIT3 (UniProt O14879) | -0.0781 | 0.00563 | -0.0242
20 | IFNGR1 (UniProt P15260) | -1.27 | -0.824 | -1.59
21 | IFRD1 (UniProt O00458) | 1.9 | -0.177 | -0.444
22 | IFRD2 (UniProt Q12894) | 3.33 | 0.798 | 0.638
23 | IFT27 (UniProt Q9BW83) | 0.151 | 0.856 | 0.225
24 | IFT74 (UniProt Q96LB3) | -0.115 | -0.121 | -0.049
25 | IFT81 (UniProt Q8WYA0) | -0.072 | -0.223 | -0.039
26 | IFT122 (UniProt Q9HBG6) | 0.188 | 0.185 | 0.177
27 | IFT140 (UniProt Q96RY7) | 0.083 | -0.182 | -0.038
28 | IGBP1 (UniProt P78318) | -0.613 | 0.172 | 0.441
29 | IGF1R (UniProt P08069) | 0.987 | 0.294 | 0.324
30 | IGF2BP1 (UniProt Q9NZI8) | -0.379 | -0.0135 | 0.286
31 | IGF2BP2 (UniProt Q9Y6M1) | -0.165 | -0.00758 | 0.044
32 | IGF2BP3 (UniProt O00425) | -0.579 | -0.521 | -0.325
33 | IGF2R (UniProt P11717) | -0.374 | -1.48 | -0.964
34 | IGHMBP2 (UniProt P38935) | -0.187 | 0.0798 | 0.0388
35 | IGSF3 (UniProt O75054) | -0.196 | 0.454 | -0.247
36 | IGSF8 (UniProt Q969P0) | 0.893 | 0.26 | 0.326
